Source: patent US11192867B2, “Microbiocidal oxadiazole derivatives” (SYNGENTA PARTICIPATIONS AG, priority 2016, dated 2021)

Columns and labels:
[1] = system: Glomerella lagenarium (Colletotrichum lagenarium); assay: Fungicidal activity against Glomerella lagenarium (Colletotrichum lagenarium) liquid culture / cucumber / preventative (anthracnose); format: cell-based; conditions: Colletotrichum orbiculare, 72 h; 20 ppm in the applied formulation; liquid culture (PDB), growth inhibition measured photometrically 3 to 4 days after application; vs untreated control; read-out: disease control
How it was run: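 In liquid culture, cryo-stored conidia in potato dextrose broth were exposed to compound delivered from DMSO solution. Growth inhibition was measured photometrically after 3 to 4 days at 24° C.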

[2] = system: Puccinia recondita f. sp. Tritici; assay: Fungicidal activity against Puccinia recondita f. sp. Tritici / wheat / leaf disc curative (brown rust); format: in vivo; conditions: foliar, 24 h, 200 ppm in the applied formulation, wheat leaf segments cv. Kanzler, applied 1 day after inoculation, vs untreated control, read-out: disease control
How it was run: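 Spray application came one day after spore inoculation of Kanzler wheat leaf segments kept on agar. Conditions: 19° C, 75% relative humidity, dark before treatment and 12 h light/12 h dark after. Efficacy = % disease control compared with untreated, 6–8 days post-application.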

[3] = system: Puccinia recondita f. sp. Tritici; assay: Fungicidal activity against Puccinia recondita f. sp. Tritici / wheat / leaf disc preventative (brown rust); format: in vivo; conditions: foliar, 200 ppm in the applied formulation, wheat leaf segments cv. Kanzler, inoculated 1 day after application, vs untreated control, read-out: disease control
How it was run: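 Preventative leaf-segment test: compound at 200 ppm applied by spray to Kanzler wheat, with spore inoculation following after one day. Disease control relative to untreated check read 7 to 9 days post-application, incubation at 19° C., 75% relative humidity, 12 h light/12 h dark.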

[4] = system: Phakopsora pachyrhizi; assay: Fungicidal activity against Phakopsora pachyrhizi / soybean / leaf disc preventative (Asian soybean rust); format: in vivo; conditions: foliar, 200 ppm in the applied formulation, soybean leaf disks, vs untreated control, read-out: disease control
How it was run: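 Soybean leaf discs on water agar sprayed with compound diluted in water, then inoculated with spores on the lower surface one day later. Kept 24-36 h dark, 20 °C, 75% rh, then 12 h light/12 h dark. Percent disease control versus untreated scored 12-14 days after application.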

| SMILES | inhibition of growth at 20 ppm [1] [%] | pest or weed control at 200 ppm [2] [%] | pest or weed control at 200 ppm [3] [%] | pest or weed control at 200 ppm [4] [%] | melting point [°C] |
| --- | --- | --- | --- | --- | --- |
| CON=CC(C)NC(=O)c1ccc(-c2noc(C(F)(F)F)n2)cc1 (stereo not shown) [Compound 1.3, N-(2-methoxyimino-1-methyl-ethyl)-4-[5-(trifluoromethyl)-1,2,4-oxadiazol-3-yl]benzamide] | ≥ 80 | ≥ 80 | ≥ 80 | ≥ 80 | 164 to 165 |
| C#CCO/N=C\NC(=O)c1ccc(-c2noc(C(F)(F)F)n2)cc1 [Compound 1.6, N-[(Z)-prop-2-ynoxyimino-methyl]-4-[5-(trifluoromethyl)-1,2,4-oxadiazol-3-yl]benzamide] | ≥ 80 | ≥ 80 | ≥ 80 | ≥ 80 | 114 to 119 |
| CO/N=C(\C)C(NC(=O)c1ccc(-c2noc(C(F)(F)F)n2)cc1)OC (stereo not shown) [Compound 1.7, N-[(2E)-1-methoxy-2-methoxyimino-propyl]-4-[5-(trifluoromethyl)-1,2,4-oxadiazol-3-yl]benzamide] | ≥ 80 | ≥ 80 | ≥ 80 | ≥ 80 | 100.7 to 106.9 |
| CCO/N=C/C(C)NC(=O)c1ccc(-c2noc(C(F)(F)F)n2)cc1 (stereo not shown) [Compound 1.8, N-[(2E)-2-ethoxyimino-1-methyl-ethyl]-4-[5-(trifluoromethyl)-1,2,4-oxadiazol-3-yl]benzamide] | ≥ 80 | ≥ 80 | ≥ 80 | ≥ 80 | 142 to 143 |
| CCO/N=C\C(C)NC(=O)c1ccc(-c2noc(C(F)(F)F)n2)cc1 (stereo not shown) [Compound 1.9, N-[(2Z)-2-ethoxyimino-1-methyl-ethyl]-4-[5-(trifluoromethyl)-1,2,4-oxadiazol-3-yl]benzamide] | ≥ 80 | ≥ 80 | ≥ 80 | ≥ 80 | 173 to 174 |
| CON=CCNC(=O)c1ccc(-c2noc(C(F)(F)F)n2)cc1 [Compound 1.10, N-(2-methoxyimino-ethyl)-4-[5-(trifluoromethyl)-1,2,4-oxadiazol-3-yl]benzamide] | ≥ 80 | ≥ 80 | ≥ 80 | ≥ 80 | 155 to 157 |
| CCON=CCNC(=O)c1ccc(-c2noc(C(F)(F)F)n2)cc1 [Compound 1.11, N-(2-ethoxyiminoethyl)-4-[5-(trifluoromethyl)-1,2,4-oxadiazol-3-yl]benzamide] | ≥ 80 | ≥ 80 | ≥ 80 | ≥ 80 | 156 to 158 |
| CCON=C(C)CNC(=O)c1ccc(-c2noc(C(F)(F)F)n2)cc1 [Compound 1.12, N-(2-ethoxyimino-propyl)-4-[5-(trifluoromethyl)-1,2,4-oxadiazol-3-yl]benzamide] | ≥ 80 | ≥ 80 | ≥ 80 | ≥ 80 | 135 to 136 |
| CO/N=C(\C)CNC(=O)c1ccc(-c2noc(C(F)(F)F)n2)cc1 [Compound 1.13, N-[(2E)-2-methoxyimino-propyl]-4-[5-(trifluoromethyl)-1,2,4-oxadiazol-3-yl]benzamide] | ≥ 80 | ≥ 80 | ≥ 80 | ≥ 80 | 145 to 146 |
| CO/N=C(/C)CNC(=O)c1ccc(-c2noc(C(F)(F)F)n2)cc1 [Compound 1.14, N-[(2Z)-2-methoxyimino-propyl]-4-[5-(trifluoromethyl)-1,2,4-oxadiazol-3-yl]benzamide] | ≥ 80 | ≥ 80 | ≥ 80 | ≥ 80 | 151 to 152 |
| O=C(NCC=NOCCF)c1ccc(-c2noc(C(F)(F)F)n2)cc1 [Compound 1.148, N-[2-(2-fluoroethoxyimino)ethyl]-4-[5-(trifluoromethyl)-1,2,4-oxadiazol-3-yl]benzamide] | ≥ 80 | ≥ 80 | ≥ 80 | ≥ 80 | 145 to 146 |
| CC(/C=N/OCCF)NC(=O)c1ccc(-c2noc(C(F)(F)F)n2)cc1 (stereo not shown) [Compound 1.149, N-[(2E)-2-(2-fluoroethoxy-imino)-1-methyl-ethyl]-4-[5-(trifluoromethyl)-1,2,4-oxadiazol-3-yl]benzamide] | ≥ 80 | ≥ 80 | ≥ 80 | ≥ 80 | 138 to 139 |
| CC(/C=N\OCCF)NC(=O)c1ccc(-c2noc(C(F)(F)F)n2)cc1 (stereo not shown) [Compound 1.150, N-[(2Z)-2-(2-fluoroethoxyimino)-1-methyl-ethyl]-4-[5-(trifluoromethyl)-1,2,4-oxadiazol-3-yl]benzamide] | ≥ 80 | ≥ 80 | ≥ 80 | ≥ 80 | 172 to 173 |
| CC(CNC(=O)c1ccc(-c2noc(C(F)(F)F)n2)cc1)=NOCCF [Compound 1.151, N-[2-(2-fluoroethoxyimino)propyl]-4-[5-(trifluoromethyl)-1,2,4-oxadiazol-3-yl]benzamide] | ≥ 80 | ≥ 80 | ≥ 80 | ≥ 80 | 133 to 134 |
| CON=CCCNC(=O)c1ccc(-c2noc(C(F)(F)F)n2)cc1 [Compound 1.152, N-(3-methoxyimino-propyl)-4-[5-(trifluoromethyl)-1,2,4-oxadiazol-3-yl]benzamide] | ≥ 80 | ≥ 80 | ≥ 80 | ≥ 80 | 136 to 140 |
| CCON=CCCNC(=O)c1ccc(-c2noc(C(F)(F)F)n2)cc1 [Compound 1.153, N-(3-ethoxyiminopropyl)-4-[5-(trifluoromethyl)-1,2,4-oxadiazol-3-yl]benzamide] | ≥ 80 | ≥ 80 | ≥ 80 | ≥ 80 | 132 to 136 |
| O=C(NCCC=NO)c1ccc(-c2noc(C(F)(F)F)n2)cc1 [Compound 1.154, N-(3-hydroxyimino-propyl)-4-[5-(trifluoromethyl)-1,2,4-oxadiazol-3-yl]benzamide] | ≥ 80 | ≥ 80 | ≥ 80 | ≥ 80 | 180 to 183 |
| CCON=CC(C)NC(=O)c1ccc(-c2noc(C(F)(F)F)n2)cc1F (stereo not shown) [Compound 1.156, N-(2-ethoxyimino-1-methyl-ethyl)-2-fluoro-4-[5-(trifluoromethyl)-1,2,4-oxadiazol-3-yl]benzamide] | ≥ 80 | ≥ 80 |  | ≥ 80 | 113 to 115 |
| CON=C(C)CNC(=O)c1ccc(-c2noc(C(F)(F)F)n2)cc1F [Compound 1.157, 2-fluoro-N-(2-methoxyimino-propyl)-4-[5-(trifluoromethyl)-1,2,4-oxadiazol-3-yl]benzamide] | ≥ 80 | ≥ 80 | ≥ 80 | ≥ 80 | 122 to 124 |
| CCON=C(C)CNC(=O)c1ccc(-c2noc(C(F)(F)F)n2)cc1F [Compound 1.158, N-(2-ethoxyiminopropyl)-2-fluoro-4-[5-(trifluoromethyl)-1,2,4-oxadiazol-3-yl]benzamide] | ≥ 80 | ≥ 80 | ≥ 80 | ≥ 80 | 120 to 122 |
| CON=CC(C)NC(=O)c1ccc(-c2noc(C(F)(F)F)n2)c(F)c1 (stereo not shown) [Compound 1.159, 3-fluoro-N-(2-methoxyimino-1-methyl-ethyl)-4-[5-(trifluoromethyl)-1,2,4-oxadiazol-3-yl]benzamide] | ≥ 80 | ≥ 80 | ≥ 80 | ≥ 80 | 119 to 121 |
| CON=CCCNC(=O)c1ccc(-c2noc(C(F)(F)F)n2)c(F)c1 [Compound 1.160, 3-fluoro-N-(3-methoxyiminopropyl)-4-[5-(trifluoromethyl)-1,2,4-oxadiazol-3-yl]benzamide] | ≥ 80 | ≥ 80 | ≥ 80 | ≥ 80 | 103 to 108 |
